# Read-outs that look alike come from different tables or passages of the source.
# Columns and labels:
# PD-1/PD-L1 = PD-1/PD-L1 (Homo sapiens (Human), UniProt Q9NZQ7); assay: PD-1/PD-L1 biochemical protein-protein interaction assay (ALPHA); assay type: binding; settings: read-out: IC50 PD-L1-PD1
# PD-L1 = PD-L1 (Homo sapiens (Human), UniProt Q9NZQ7); assay: PD-L1/PD-L1 dimerization biochemical protein-protein interaction assay (ALPHA); assay type: binding; settings: read-out: AC50 PDL1 Dimer 1 nM
# [1] = 0.3 nM His tagged PD-L1, 2.5 nM biotinylated Fc-PD-1, readings of 0.064 nM are equal to or less than 0.064 nM
# [2] = 0.5 nM His tagged PD-L1 and 0.5 nM FLAG tagged PD-L1, Table 4A
# [3] = 0.3 nM His tagged PD-L1, 2.5 nM biotinylated Fc-PD-1, Table 3B
# [4] = 0.5 nM His tagged PD-L1 and 0.5 nM FLAG tagged PD-L1, Table 4B
# Sequence of PD-1/PD-L1 (Q9NZQ7 19-238): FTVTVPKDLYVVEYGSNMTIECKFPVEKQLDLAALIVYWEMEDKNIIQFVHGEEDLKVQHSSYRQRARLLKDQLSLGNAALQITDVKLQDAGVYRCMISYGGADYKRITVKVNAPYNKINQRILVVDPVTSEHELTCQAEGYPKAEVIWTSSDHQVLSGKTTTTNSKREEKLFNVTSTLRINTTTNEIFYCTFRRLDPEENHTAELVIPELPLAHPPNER
# Sequence of PD-L1 (Q9NZQ7 19-238): as above
# Sequence of PD-L1 (Q9NZQ7 19-238): as above
Compound,IC50 (PD-1/PD-L1; [1]) [nM],AC50 (PD-L1; [2]) [nM],IC50 (PD-1/PD-L1; [3]) [nM],AC50 (PD-L1; [4]) [nM]
COc1nc(-c2cccc(-c3cccc4c3CC[C@@H]4Nc3nc(OC)c(CN4CC5CC(C(=O)O)C4C5)nc3C(F)(F)F)c2Cl)ccc1CNC[C@@H]1CCC(=O)N1 (some centres unmarked) [A-81],≤ 0.064,23.1,–,–
CC[C@H](NCc1cc(C(F)(F)F)c(O[C@H]2CCc3c(-c4cccc(-c5ccc(CNC[C@@H]6CCC(=O)N6)c(OC)n5)c4Cl)cccc32)nc1OC)C(=O)O [B-269],–,–,0.064,6.13
COc1nc(-c2cccc(-c3cccc4c3CC[C@@H]4Oc3nc(OC)c(CN4CCC(C(=O)O)CC4)cc3Cl)c2Cl)ccc1CNC[C@@H]1CCC(=O)N1 [B-115],–,–,0.064,26.3
COc1nc(O[C@H]2CCc3c(-c4cccc(-c5ccc(CNC[C@@H]6CCC(=O)N6)c(OC)c5F)c4Cl)cccc32)c(Cl)cc1CN1CC[C@@H](C(=O)O)C1 [B-143],–,–,0.064,42.1
COc1nc(-c2cccc(-c3cccc4c3CC[C@@H]4Nc3nc(OC)c(CN4CCC5CC4(C(=O)O)C5)cc3C(F)(F)F)c2Cl)ccc1CN[C@H]1C[C@](C)(O)C1 [A-58],≤ 0.064,9.38,–,–
COc1nc(-c2cccc(-c3cccc4c3CC[C@@H]4Nc3nc(OC)c(CN4CC[C@@H](C(=O)O)C4)cc3C(F)(F)F)c2Cl)ccc1CNC[C@@H]1CCC(=O)N1 [A-4],≤ 0.064,14.3,–,–
COc1nc(-c2cccc(-c3cccc4c3CC[C@@H]4Nc3nc(OC)c(CN[C@H](C(=O)O)C(C)C)nc3C(F)(F)F)c2Cl)ccc1CNC[C@@H]1CCC(=O)N1 [A-105],≤ 0.064,40.6,–,–
COc1nc(-c2cccc(-c3cccc4c3CC[C@@H]4Oc3nc(OC)c(CNC(C)(C)C(=O)O)cc3C(F)(F)F)c2Cl)ccc1CN[C@H]1C[C@](C)(O)C1 [B-1],–,–,0.064,1.11
COc1cc(-c2cccc(-c3cccc4c3CC[C@@H]4Oc3nc(OC)c(CN4CC(C)(C(=O)O)C4)cc3C(F)(F)F)c2Cl)ccc1CNC[C@@H]1CCC(=O)N1 [B-141],–,–,0.064,5.83
CNC(=O)CCNCc1cc(Cl)c(O[C@H]2CCc3c(-c4cccc(-c5ccc(CNC[C@@H]6CCC(=O)N6)c(OC)n5)c4Cl)cccc32)nc1OC [B-90],–,–,0.111,18.7
COc1nc(-c2cccc(-c3cccc4c3CC[C@@H]4Nc3nc(OC)c(CN[C@H](C(=O)O)C4CC4)nc3C(F)(F)F)c2Cl)ccc1CN[C@H]1C[C@](C)(O)C1 [A-94],≤ 0.064,20.7,–,–
COc1cc(-c2cccc(-c3cccc4c3CC[C@@H]4Oc3nc(OC)c(CNC4(C(=O)O)CC4)cc3C(F)(F)F)c2Cl)cc(F)c1CNC[C@@H]1CCC(=O)N1 [B-193],–,–,0.064,3.76
COc1nc(-c2cccc(-c3cccc4c3CC[C@@H]4Oc3nc(OC)c(CN4CC5(C(=O)O)CCC4CC5)nc3Cl)c2Cl)ccc1CNC[C@@H]1CCC(=O)N1 [B-153],–,–,0.064,19
COC[C@H](NCc1cc(C(F)(F)F)c(O[C@H]2CCc3c(-c4cccc(-c5ccc(CN[C@H]6C[C@](C)(O)C6)c(OC)n5)c4Cl)cccc32)nc1OC)C(=O)O [B-256],–,–,0.064,13.1
COc1nc(-c2cccc(-c3cccc4c3CC[C@@H]4Oc3nc(OC)c(CN4CC(C(=O)N=S(C)(=O)NC(C)=O)C4)cc3Cl)c2Cl)ccc1CNC[C@@H]1CCC(=O)N1 (some centres unmarked) [B-159],–,–,0.064,24.9
COc1cc(O[C@H]2CCc3c(-c4cccc(-c5ccc(CNC[C@@H]6CCC(=O)N6)c(OC)n5)c4Cl)cccc32)c(C(F)(F)F)cc1CNCC(C)(C)C(=O)O [B-221],–,–,0.064,17.5
COc1nc(-c2cccc(-c3cccc4c3CC[C@@H]4Oc3nc(OC)c(CNC4(C(=O)O)CC4)cc3C(F)(F)F)c2Cl)ccc1CNC[C@H]1C[C@](C)(O)C1 [B-207],–,–,0.064,11.9

Compound,IC50 (PD-1/PD-L1; [1]) [nM],AC50 (PD-L1; [2]) [nM],IC50 (PD-1/PD-L1; [3]) [nM],AC50 (PD-L1; [4]) [nM]
COc1nc(-c2cccc(-c3cccc4c3CC[C@@H]4Nc3nc(OC)c(CN4CC[C@@H](C(=O)O)C4)cc3Cl)c2Cl)ccc1CNC[C@@H]1CCC(=O)N1 [A-8],≤ 0.064,79.7,–,–
COc1nc(-c2cccc(-c3cccc4c3CC[C@@H]4Oc3nc(OC)c(CN4CC5(C(=O)O)CCC4CC5)cc3C(F)(F)F)c2Cl)ccc1CNC[C@@H]1CC(O)C(=O)N1 (some centres unmarked) [B-203],–,–,0.064,5.21
COc1nc(-c2cccc(-c3cccc4c3CC[C@@H]4Oc3nc(OC)c(CN4CC[C@@H]5C[C@@]54C(=O)O)cc3C(F)(F)F)c2Cl)ccc1CN[C@H]1C[C@](C)(O)C1 [B-3],–,–,0.066,120
COc1nc(-c2cccc(-c3cccc4c3CC[C@@H]4Oc3nc(OC)c(CN4C[C@H]5C[C@]4(C(=O)O)[C@H]5C)cc3Cl)c2Cl)ccc1CNC[C@@H]1CCC(=O)N1 [B-180],–,–,0.064,12.5
COc1cc(-c2cccc(-c3cccc4c3CC[C@@H]4Oc3nc(OC)c(CN4CC[C@@H]5C[C@@]54C(=O)O)cc3C(F)(F)F)c2Cl)ccc1CNC[C@@H]1CCC(=O)N1 [B-117],–,–,0.064,0.813
COc1nc(-c2cccc(-c3cccc4c3CC[C@@H]4Nc3nc(OC)c(CNCC(N)=O)nc3C(F)(F)F)c2Cl)ccc1CNC[C@@H]1CCC(=O)N1 [A-103],≤ 0.064,40.2,–,–
COc1cc(N[C@H]2CCc3c(-c4cccc(-c5ccc(CNC[C@@H]6CCC(=O)N6)c(OC)n5)c4Cl)cccc32)c(C(F)(F)F)cc1CN1CC[C@H](C(=O)O)C1 [A-10],≤ 0.064,16.7,–,–
COc1nc(-c2cccc(-c3cccc4c3CC[C@@H]4Oc3nc(OC)c(CNCC(C)(C)C(=O)O)cc3C(F)(F)F)c2Cl)ccc1CN[C@H]1C[C@](C)(O)C1 [B-252],–,–,0.064,18
COc1nc(-c2cccc(-c3cccc4c3CC[C@@H]4Oc3nc(OC)c(CNC4(C(=O)O)CC4)cc3C(F)(F)F)c2Cl)ccc1CN1CC2(CNC(=O)C2)C1 [B-169],–,–,0.064,11.1
COc1nc(-c2cccc(-c3cccc4c3CC[C@@H]4Nc3nc(OC)c(CN4CC(C(=O)O)C4)cc3C(F)(F)F)c2Cl)ccc1CN[C@H]1C[C@](C)(O)C1 [A-57],≤ 0.064,29.6,–,–
COc1nc(-c2cccc(-c3cccc4c3CC[C@@H]4Nc3nc(OC)c(CN4CC(C)(O)C4)cc3Cl)c2Cl)ccc1CNC[C@@H]1CCC(=O)N1 [A-6],0.67,188,–,–
COc1nc(-c2cccc(-c3cccc4c3CC[C@@H]4Oc3nc4c(nc3Cl)c(CN3CC5(CNC(=O)C5)C3)nn4C)c2Cl)ccc1CNC[C@@H]1CCC(=O)N1 [B-146],–,–,0.41,297
COc1nc(-c2cccc(-c3cccc4c3CC[C@@H]4Oc3nc(OC)c(CN4CC[C@@H](C(=O)O)C4)cc3C(F)(F)F)c2Cl)ccc1CN[C@H]1C[C@](C)(O)C1 [B-2],–,–,0.064,17.5
COc1nc(-c2cccc(-c3cccc4c3CC[C@@H]4Nc3nc(OC)c(CN4CC[C@@](C)(C(=O)O)C4)nc3C(F)(F)F)c2Cl)ccc1CNC[C@@H]1CCC(=O)N1 [A-20],≤ 0.064,29.1,–,–
COc1nc(-c2cccc(-c3cccc4c3CC[C@@H]4Nc3nc(OC)c(CN(C)CC(=O)O)cc3C(F)(F)F)c2Cl)ccc1CNC[C@@H]1CCC(=O)N1 [A-35],≤ 0.064,13.2,–,–
COc1nc(-c2cccc(-c3cccc4c3CC[C@@H]4Oc3nc(OC)c(CN4CC5(C(=O)O)CCC4CC5)cc3C(F)(F)F)c2Cl)ccc1CNC[C@@H]1CCC(=O)N1 [B-61],–,–,0.064,6.22
COc1cc(-c2cccc(-c3cccc4c3CC[C@@H]4Nc3nc(OC)c(CNC4(C(=O)O)CC4)nc3C(F)(F)F)c2Cl)cc(F)c1CNC[C@@H]1CCC(=O)N1 [A-32],≤ 0.064,12.5,–,–
